The nature of this data set: pH-dependent solubility profile of Compound II. Type of data set: physicochemical. The settings on record: particularly between pH 1-4.

As for `COC(=O)N[C@H](C(=O)N1CCC[C@H]1c1ncc(-c2cc(F)c3c(c2)O[C@@H](c2cnc(C4CC4)s2)n2c-3cc3cc(-c4cnc([C@@H]5CCCN5C(=O)[C@@H](NC(=O)OC)C(C)C)[nH]4)ccc32)[nH]1)C(C)C` [Compound II, dimethyl ((2S,2′S)-((2S,2′S)-2,2′-(5,5′-((S)-6-(2-cyclopropylthiazol-5-yl)-1-fluoro-6H-benzo[5,6][1,3]oxazino[3,4-a]indole-3,10-diyl)bis(1H-imidazole-5,2-diyl))bis(pyrrolidine-2,1-diyl))bis(3-methyl-1-oxobutane-2,1-diyl))dicarbamate], the solubility profile entry is recorded as “sharp pH-dependent solubility profile”.
